Results taken from patent US20230227484A1, “PYRIMIDINE COMPOUND AS AXL INHIBITOR” (NANJING CHIA TAI TIANQING PHARMACEUTICAL CO., LTD., priority 2020, published 2023).

How the values were obtained:
[1] = Pharmacokinetic study of compounds on ICR mice; type: in vivo; conditions: mouse, po, male ICR mice, plasma; for Cmax / Tmax / half-life: 10 mg-kg^1 by gavage; for AUC(0-t): 10 mg/kg-kg^1 by gavage, read-out: AUC0-24
Description: Each compound is prepared with DMSO into a 10 mg/mL stock solution.
Preparation of mixed solvent: Tween 80: PEG400: Water=1:9:90 (v/v/v)
450 μl of the compound DMSO stock solution with a concentration of 10 mg/nmL is accurately sucked into a glass bottle, and added with an appropriate volume of DMSO and mixed solvent, wherein a ratio of the solvent in the final formulation is DMSO: mixed solvent (v/v)=10:90. The mixed solution is vortexed (or ultrasonically treated), and dispersed uniformly to obtain 4.5 mL. administration test solutions with a concentration of 1 mg/nL, respectively.
Male 6-10 week old ICR mice (sourced from: Beijing Vital River Laboratory Animal Technology Co., Ltd.) are taken, 6 mice in each group. The mice are fasted overnight and fed 4 h after the administration. On the day of the experiment, the mice are administrated with 10 mg-kg^1 of compound test solution by gavage. After administration, about 100 μL of blood is harvested from the orbits of the mice at 0 min, 5 mmn, 15 mmn, 30 min, 14 h 2 h, 4 h, 8 h, and 24 h, and placed in EDTA-K2 anticoagulant tubes. The whole blood sample is centrifuged at 1500 to 1600 g for 10 mm, and the plasma obtained by separation is stored in a refrigerator at −40 to −20° C. for biological sample analysis. The blood drug concentration is determined by an LC-MS/MS method.
A non-compartmental model in Pharsight Phoenix 7.0 is used to calculate pharmacokinetic parameters. The specific results are shown in 5 the table below.

[2] = system: human acute monocytic leukemia cell MV-4-11 xenograft tumor; assay: In-vivo efficacy of compound for MV4-11 xenograft tumor model of nude mouse; conditions: MV4-11, po, once a day, end of experiment, MV-4-11 xenograft nude mice; for response vs control in vivo at 5 mg/kg/day / inhibition in vivo at 5 mg/kg/day: intragastric 5 mg/kg/d
Description: Inhibitory effects of a compound and a positive drug on the in-vivo tumor growth of a xenograft tumor model of a nude mouse on human acute monocytic leukemia cell MV-4-11 are tested.
MV-4-11 cells in a logarithmic growth phase are harvested, resuspended after cell counting, and adjusted in cell concentration to 7.0×10^7 cells/mL. The resuspended solution is injected into the right armpit of the nude mice subcutaneously. Each animal is inoculated with 200 μL (14×10^6 cells) of the suspended solution to establish a MV-4-11 xenograft tumor model. Afer the tumor volume reaches 100-300 mm^3, tumor-bearing mice in good health and similar tumor volume are selected.
The compound and the positive drug are vortexed with a suitable solvent and then ultrasonicated to completely dissolve the compound. Then, an appropriate volume of citric acid buffer is slowly added, and the mixed solution is vortexed to make the solution mixed uniformly to obtain administrative formulations having concentrations of 0.1, 0.5, and 1 mg-mL^−1.
Solvent control group: PEG400 & citric acid buffer (20:80, v:v).
The modeled mice are randomly divided into groups (n=6), and administrated with the relevant compounds and positive drugs on the day of grouping. After 21 days or after the tumor volume of the solvent control group reaches 2000 mm^3, the experiment is terminated (whichever reaches the index first), and the administration volume is 10 mL-kg^−1. Both the compound and the positive drug are administered by gavage, once a day. After the experiment starts, the tumor diameter and animal body weight are measured twice a week, and the tumor volume is calculated.
The tumor volume(TV) calculation formula is: tumor volume(mm^3)=l×w^2/2,
The calculation formula of relative tumor volume(RTV) is: RTV=TVt/TVinitial
The calculation formula of relative tumor proliferation rate (% T/C) is: % T/C=100%×(RTVT/RTVC)

[3] = read-out: Relative tumor proliferation rate (% T/C)
[4] = read-out: Tumor growth inhibition rate (TGI %)

Compound	Cmax [1]	Tmax [1]	half-life [1]	AUC(0-t) [1]	response vs control in vivo at 5 mg/kg/day [2, 3]	inhibition in vivo at 5 mg/kg/day [2, 4]	response vs control in vivo at 1 mg/kg/day ([2]; intragastric 1 mg/kg/d, read-out: Relative tumor proliferation rate (% T/C))	inhibition in vivo at 1 mg/kg/day ([2]; intragastric 1 mg/kg/d, read-out: Tumor growth inhibition rate (TGI %))
CP(C)(=O)c1ccccc1Nc1nc(Nc2ccc3c(c2)CC[C@@H](N2CCCC2)CC3)ncc1Cl [Example 10, (S)-(2-((5-chloro-2-((7-(pyrrolidin-1-yl)-6,7,8,9-tetrahydro-5H-benzo[7]annulen-2-yl)amino)pyrimidin-4-yl)amino)phenyl)dimethyl phosphine oxide]	349 ng/mL	0.25 h	3.33 h	1000 ng·h/mL	3.7%	106%		
CNC(=O)c1cc(F)ccc1Nc1nc(Nc2ccc3c(c2)CC[C@@H](N2CCCC2)CC3)ncc1Cl [Example 19, (S)-2-((5-chloro-2-((7-(pyrrolidin-1-yl)-6,7,8,9-tetrahydro-5H-benzo[7]annulen-2-yl)amino)pyrimidin-4-yl)amino)-5-fluoro-N-methylhenzamide]	342 ng/mL	1 h	3.05 h	3540 ng·h/mL			28%	78%
CP(C)(=O)c1c(Nc2nc(Nc3ccc4c(c3)CC[C@@H](N3CCCC3)CC4)ncc2Cl)ccc2nccnc12 [Example 47, (S)-(6-((5-chloro-2-((7-(pyrrolidin-1-yl)-6,7,8,9-tetrahydro-5H-benzo[7]annulen-2-yl)amino)pyrimidin-4-yl)amino)quinoxalin-5-yl)dimethyl phosphine oxide]	69 ng/mL	1 h	2.06 h	307 ng·h/mL	15%	94%		
Cc1ccc(Nc2nc(Nc3ccc4c(c3)CC[C@@H](N3CCCC3)CC4)ncc2Cl)c(P(C)(C)=O)c1 [Example 53, (S)-(2-((5-chloro-2-((7-(pyrrolidin-1-yl)-6,7,8,9-tetrahydro-5H-benzo[7]annulen-2-yl)amino)pyrimidin-4-yl)amino)-5-methylphenyl) dimethyl phosphine oxide]	676 ng/mL	1 h	1.81 h	2200 ng·h/mL	31%	79%		
COCc1ccc(Nc2nc(Nc3ccc4c(c3)CC[C@@H](N3CCCC3)CC4)ncc2Cl)c(P(C)(C)=O)c1 [Example 115, (S)-(2-((5-chloro-2-((7-(pyrrolidin-1-yl)-6,7,8,9-tetrahydro-5H-benzo[7]annulen-2-yl)amino)pyrimidin-4-yl)amino)-5-(methoxymethyl)phenyl)dimethylphosphine oxide]	324 ng/mL	2.17 h		1300 ng·h/mL	23%	85%		
